Measured values reported in patent publication US20140050754A1, “IMMUNOGENIC CHIKUNGUNYA VIRUS PEPTIDES” (priority 2010, published 2014).

What was measured:
[1] = test system: anti-CHIKV IgG3 antibodies in pooled patients' plasma; test: Affinity depletion of anti-E2EP3 antibodies, read by virion-based ELISA; type: binding, human; conditions: pooled plasma median 10 days pio, whole virus ELISA, relative to non-depleted samples
Experimental: […]; 50 μl/well). Wells were blocked with PBST-milk (PBS, 0.05% Tween 20, 5% non-fat milk) and plates were incubated for about 1.5 hours at about 37° C. Plasma samples were then diluted 1:500, 1:2000 in PBST-milk and incubated 1 hour at about 37° C. HRP-conjugated mouse anti-human IgG, IgG1, IgG2, IgG3, IgG4 and IgM (Molecular Probes) were used to detect human antibodies bound to virus-coated wells. Reactions were developed using TMB substrate (Sigma-Aldrich) and stopped with stopping reagent (Sigma-Aldrich). The absorbance was measured at 450 nm. Healthy donor samples were used as controls. ELISA determinations were done in duplicates and the values plotted as means±standard error means (SEM).
(§1) For affinity depletion of human anti-E2EP3 antibodies, synthetic biotinylated E2EP3 peptide (EMC microcollections GmbH) was added at 450 ng/well to streptavidin-coated plates (Pierce) and incubated at room temperature for about 1 hour in PBS containing 0.1% Tween-20 (0.1% PBST). Human plasma samples were added and incubated for about 25 minutes at room temperature for absorption. The unbound portion was collected after 21 rounds of absorption. ELISA analysis was performed to verify the levels of the antibodies during affinity depletion.
In FIG. 9(c), depleted samples as described in FIG. 9(b) were subjected to anti-CHIKV IgG3 antibodies detection. Virion-based ELISA was performed as described to measure the depletion efficiency. Outputs were expressed as percentage control IgG3 titer from non-depleted samples. Data were presented as mean±SD. Examples were performed in triplicates.

[2] = test system: E2EP3-specific IgG3 antibodies in pooled patients' plasma; test: Affinity depletion of anti-E2EP3 antibodies, read by E2EP3 specific peptide-based ELISA; type: binding, human; conditions: pooled plasma median 10 days pio, relative to non-depleted samples
Experimental: as §1
Plasma samples (Median 10 days pio) were incubated with E2EP3 (K3, N5, K10), E2EP3 with double alanine substitution at lysine residues (K3A, N5, K10A) or triple alanine substitution at lysine and asparagine (K3A, N5A, K10A) peptides. E2EP3 specific peptide-based ELISA was performed to measure the depletion efficiency. Outputs were expressed as percentage control IgG3 titer from non-depleted samples. Data were presented as mean±SD. Examples were performed in triplicates.

[3] = test system: CHIKV (SGP11) infection of HEK 293T cells; test: Affinity depletion of anti-E2EP3 antibodies, read by in vitro neutralization assay; type: cell-based, Chikungunya virus; conditions: plasma 1:500; about 20% with non-depleted plasma
Experimental: (§2) Neutralizing activity of CHIKV-infected patient samples were test in triplicates and were analyzed by immunofluorescence-based cell infection assay in HEK 293T cells, using Singapore strain CHIKV (SGP11). CHIKV were mixed at MOI 10 with diluted (1:100, 500 or 1,000) heat-inactivated human plasma and incubated for 2 hours at about 37° C. with gentle agitation (350 rpm). Virus-antibody mixtures were then added to HEK 293T cells seeded in 96-well plates and incubated for 1.5 hours at about 37° C. Virus inoculums (medium) were removed, and cells were replenished with DMEM medium supplied with 5% FBS and incubated for about 6 hours at about 37° C. before fixation with 4% paraformaldehyde followed by immunofluorescence quantification using the Cellomics ArrayScan V. The Cellomics ArrayScan. V was used as a complementary means of assessing neutralization capabilities of patients' plasma (same set-up as mentioned above), but involves an assessment endpoint at 6 hours post-infection (pi) to capture possible early protective responses against virus infection. Percentage infectivity was detected with High Content Screening and was calculated according to the equation: % Infectivity=100×(% responder from sero-neutralization group/% responder from virus infection group).
as §1
In FIG. 9(d), in vitro neutralizing activity of anti-E2EP3 antibodies against CHIKV-infected patients' plasma samples was observed. […] Outputs were expressed as percentage control infection. […]

[4] = test system: CHIKV (SGP11) infection of HEK 293T cells; test: Peptide blocking assay with human plasma followed by sero-neutralization assay; type: cell-based, Chikungunya virus; conditions: patients' plasma pools 1:500; 20% without peptide
Experimental: as §2, with “group). […]” for “group).”
Outputs were expressed as percentage control infection. […]

CHIKV infection in vitro = test: In vitro neutralizing activity of E2EP3-vaccinated mouse sera; type: cell-based, Chikungunya virus; conditions: sera 27 days post-vaccination, dilution 1:100
Experimental: as §2, with “V was used as a complementary means of assessing neutralization capabilities of patients' plasma (same set-up as mentioned above), but involves an assessment endpoint at 6 hours post-infection (pi) to capture possible early protective responses against virus infection.” left out
Lyophilized KLH-E2EP3 peptide was dissolved in DMSO (Sigma-Aldrich) to a working concentration of 5 mg/mL. […] Viremia and degree of inflammation were monitored. […] Hind footpads of mice were measured daily using a vernier calliper from day 0 to day 14 post-infection. Measurements were done for the height (thickness) and the breadth of the foot and quantified as [height×breadth]. […]

CHIKV (SGP11) [5] = test: CHIKV challenge of vaccinated mice: viremia by virus plaque assay; type: in vivo; conditions: 2 days post-challenge, challenge 30 days post-vaccination with 10^6 PFU s.c.; PBS control 4,500
Experimental: (§3) Lyophilized KLH-E2EP3 peptide was dissolved in DMSO (Sigma-Aldrich) to a working concentration of 5 mg/mL. Three-weeks old, female, C57BL/6J (sample size, n=7) were vaccinated subcutaneously in the abdominal flank with 100 μg of KLH-E2EP3 peptide prepared in 100 μl emulsion with 50% Complete Freund's Adjuvant (CFA) (Sigma-Aldrich) in PBS. Vaccinated mice were further boosted another two times at day 14 and day 21 with 50 μg of the peptide prepared in Incomplete Freund's Adjuvant (IFA) (Sigma-Aldrich). Control mice (n=7) were vaccinated with PBS/CFA and PBS/IFA on first vaccination and subsequent booster shots respectively. […] Viremia and degree of inflammation were monitored. […] Hind footpads of mice were measured daily using a vernier calliper from day 0 to day 14 post-infection. Measurements were done for the height (thickness) and the breadth of the foot and quantified as [height×breadth]. Degree of inflammation was expressed as relative increase in footpad size as compared to pre-infection with the following formula: [(day x−day 0)÷day 0] where x is the footpad measurements for each respective day post-infection.
(§4) Mice were immunized with E2EP3 peptide complex to KLH or PBS Control emulsified with Complete Freund's Adjuvant (CFA) subcutaneously, and were boosted two more times with Incomplete Freund's Adjuvant (IFA). […] Outputs were expressed as percentage infection relative to PBS Control. […]

CHIKV (SGP11) [6] = test: CHIKV challenge of vaccinated mice: footpad swelling (inflammation); type: in vivo; conditions: day 0 to day 14 post-challenge
Experimental: as §3, §4

[7] = test system: CHIKV infection of HEK 293T cells; test: Peptide blocking assay with NHP plasma followed by in vitro neutralization assay; type: cell-based, Chikungunya virus; conditions: NHP plasma dilution series 1:100 to 1:3200, compared to untreated plasma
C57BL/6J mice = test: KLH-E2EP3 vaccination of mice: E2EP3 specific peptide-based ELISA; type: in vivo; conditions: KLH-linked E2EP3 with CFA/IFA
Experimental: as §3
Importantly, the sera obtained at 27 days post-vaccination were able to neutralize CHIKV-infection in vitro. In FIGS. 17(a) and 17(b), mouse anti-E2EP3 IgG antibodies were detected after the second and third vaccination. All outputs were expressed as mean±SD. […]

Row | Substance | reduction of total anti-CHIKV IgG3 titer after depletion with peptide [1] | E2EP3-specific IgG3 depleted from patients' plasma by surface-bound peptide [2] | virus infectivity (percentage control infection) with peptide-depleted plasma [3] | CHIKV infection (percentage control infection) after blocking with soluble E2EP3 peptide [4] | reduction of infectivity compared to the PBS-vaccinated control group (CHIKV infection in vitro) | CHIKV viremia (CHIKV (SGP11) [5]) | maximal footpad swelling of PBS-vaccinated group relative to E2EP3-vaccinated group (CHIKV (SGP11) [6]) | effect of soluble peptide on neutralization by CHIKV-infected NHP plasma [7] | anti-E2EP3 IgG titer (C57BL/6J mice; 19 days post-vaccination, after 1st boost) | anti-E2EP3 IgG titer (C57BL/6J mice; 27 days post-vaccination, after 2nd boost)
1 | K3A/K10A (STADNFNVYAATRPYLAHC) | 40% | 30% | only a gradual decrease of the neutralizing efficacy | – | – | – | – | – | – | –
2 | K3A/N5A/K10A (STADAFNVYAATRPYLAHC) | 20% | 15% | only a gradual decrease of the neutralizing efficacy | – | – | – | – | – | – | –
3 | STKDNFNVYKATRPYLAHC [E2EP3] | ~80% | – | more than 50% | ~40% | approximately 40% | 2,000 pfu/mL | more than twice | abrogated the inhibitory effect of monkey plasma samples significantly | Significant anti-E2EP3 titer | further increased
